The test system of experiment [1] is BXPC-3. The experiment can be described thus: Cytotoxicity against human BxPC3 cells. In kind it is functional, cell-based.
In experiment [2] the test system is PC-3. The experiment can be described thus: Cytotoxicity against human PC3 cells. In kind it is functional, cell-based.
For experiment [3], the system named is MIA PaCa-2. The experiment can be described thus: Cytotoxicity against human MIA PaCa2 cells. It counts as functional, cell-based.
Experiment [4] has as its system LS174T. The experiment can be described thus: Cytotoxicity against human LS174T cells. It counts as functional, cell-based.
Experiment [5] concerns PC-3. The experiment can be described thus: Cytotoxicity against human PC3 cells at 10 uM. It counts as functional.
For experiment [6], the system named is PC-3. The experiment can be described thus: Cytotoxicity against human PC3 cells at 20 uM. It counts as functional.

pIC50: −log10 of the molar value.

By pIC50 is commonly meant the IC50 on a negative log10 scale, so that one unit is a factor of ten. Take `COc1cc(/C=C/C(=O)CC(=O)/C=C/c2ccc(O)c(OC)c2)ccc1O` [CURCUMIN]: the negative logarithm of the IC50 (pIC50) is 5.54 in experiment [1], 4.92 in experiment [2], 5.05 in experiment [3] and 5.19 in experiment [4]. The Activity in experiment [5] was determined as 65%; in experiment [6], 90%.
